“Also recorded” adds a separate entry of the source. Structures can show the parent of a compound that is named as a salt.
Tests used:
[1] = Test Example 2 (Hygroscopicity): weight increase in open weighing bottle at 25° C. and controlled RH; assay type: physicochemical; details: for hygroscopic stability in words: RH 33% or 92%, time-dependent; for water content reached with elapsed time: eventual value, hydrochloride
Method: Each of the dihydrate of the present invention produced in Example 1 and (S)-(−)-1-(4-fluoroisoquinolin-5-yl)sulfonyl-2-methyl-1,4-homopiperazine hydrochloride anhydrate (each 100 mg) was placed in a weighing bottle. The bottle was allowed to stand in a container maintained at 25° C. and an RH of 33% or 92%, with the container being opened. The weighing bottle was time-dependently weighed, to thereby determine increase in weight for evaluation of hygroscopicity. FIGS. 6 and 7 show the results.

[2] = Test Example 1 (Thermal Stability): storage in sealed containers in thermostats; assay type: physicochemical; details: for Percent remain (%): sealed container
Method: The dihydrate of the present invention produced in Example 1 was placed in sealable containers such that each container included 1 g of the dihydrate. After sealing, these containers were maintained in thermostats at 40, 60, and 80° C. for 7 and 14 days, so as to evaluate thermal stability.

With C[C@H]1CNCCCN1S(=O)(=O)c1cccc2cncc(F)c12.Cl [anhydrous crystals, (S)-(−)-1-(4-fluoroisoquinolin-5-yl)sulfonyl-2-methyl-1,4-homopiperazine hydrochloride] the “hygroscopic stability in words” value [1] was “poor hygroscopic stability”, the “water content reached with elapsed time” value ([1]; relative humidity 92%) was “about 40%” and the “water content reached with elapsed time” value ([1]; relative humidity 92%, listed as anhydrate) was 40%. For the same compound, the “water content after seven days” value ([1]; relative humidity 92%, seven days) was 40%.

With C[C@H]1CNCCCN1S(=O)(=O)c1cccc2cncc(F)c12 [dihydrate, (S)-(−)-1-(4-fluoroisoquinolin-5-yl)sulfonyl-2-methyl-1,4-homopiperazine hydrochloride dihydrate] the “hygroscopic stability in words” value [1] was “excellent hygroscopic stability”, the “change of water content (hygroscopic behavior) in words” value ([1]; relative humidity 92% RH, 14 days, hydrochloride dihydrate) was “constant; also recorded: no change in its water content” and the “thermal stability in words” value ([2]; after storage at 40° C., 60° C., or 80° C. for two weeks) was “high thermal stability”. The “Percent remain (%)” value ([2]; storage temp. 40° C., storage period 7 days) was 100.0%, the “Percent remain (%)” value ([2]; storage temp. 40° C., storage period 14 days) was 99.6% and the “Percent remain (%)” value ([2]; storage temp. 60° C., storage period 7 days) was 99.6%. For the same compound, the “Percent remain (%)” value ([2]; storage temp. 60° C., storage period 14 days) was 99.8%, the “Percent remain (%)” value ([2]; storage temp. 80° C., storage period 7 days) was 99.8% and the “Percent remain (%)” value ([2]; storage temp. 80° C., storage period 14 days) was 99.8%. For the same compound, the “thermal stability (decomposition or undesired reaction) in words” value ([2]; stored at 80° C. for two weeks) was “does not decompose”.

— patent US7858615B2, “(S)-(-)-1-(4-fluoroisoquinolin-5-Yl)Sulfonyl-2-methyl-1,4-homopiperazine hydrochloride dihydrate” (Kowa Co., Ltd., priority 2004, dated 2010)
